# In EP4001279A1, “NOVEL SPIROPYRROLIDINE DERIVED ANTIVIRAL AGENTS” (Enanta Pharmaceuticals, Inc., priority 2020, dated 2022):
# pEC50: −log10 of the molar value.
# Tested on: 229E human corona virus (hCoV)
# Test: 229E live virus assay (CPE, ATPlite readout in MRC-5 cells)
# Format: cell-based, hCoV-229E
# Conditions: Human coronavirus 229E, MRC5, hCoV-229E live virus, MOI 0.05, ATPlite readout, run in duplicate
row,Structure (SMILES),pEC50
1,COc1ccc(C(=O)N(C)[C@@H](CC(C)C)C(=O)N2C[C@]3(C[C@H]2C#N)C(=O)Nc2ccccc23)cc1C(F)(F)F [Example 181],> 7.00
2,COc1ccc(C(=O)N(C)[C@@H](CC(C)C)C(=O)N2C[C@]3(C[C@H]2C#N)C(=O)Nc2ccccc23)cc1F [Example 182],> 7.00
3,CC(C)C[C@@H](C(=O)N1C[C@]2(C[C@H]1C#N)C(=O)Nc1ccccc12)N(C)C(=O)c1c(Cl)cc(Cl)cc1Cl [Example 185],> 7.00
4,CC(C)C[C@@H](C(=O)N1C[C@]2(C[C@H]1C#N)C(=O)Nc1ccccc12)N(C)C(=O)c1c(Cl)cc(F)cc1Cl [Example 186],> 7.00
5,CC(C)C[C@@H](C(=O)N1C[C@]2(C[C@H]1C#N)C(=O)Nc1ccccc12)N(C)C(=O)c1cc(Cl)cc(C#N)c1 [Example 187],> 7.00
6,CC(C)C[C@@H](C(=O)N1C[C@]2(C[C@H]1C#N)C(=O)Nc1ccccc12)N(C)C(=O)c1cccc(OC(F)F)c1 [Example 188],> 7.00
7,CC(C)C[C@@H](C(=O)N1C[C@]2(C[C@H]1C#N)C(=O)Nc1ccccc12)N(C)C(=O)c1cccc(OC(F)(F)F)c1 [Example 189],> 7.00
8,CC(C)C[C@@H](C(=O)N1C[C@]2(C[C@H]1C#N)C(=O)Nc1ccccc12)N(C)C(=O)c1ccc2c(c1)OC(F)(F)O2 [Example 190],> 7.00
9,COc1ccnc(C(=O)N(C)[C@@H](CC(C)C)C(=O)N2C[C@]3(C[C@H]2C#N)C(=O)Nc2ccccc23)c1 [Example 192],> 7.00
10,COc1ccc(C(=O)N(C)[C@@H](CC(C)C)C(=O)N2C[C@]3(C[C@H]2C#N)C(=O)Nc2ccccc23)nc1 [Example 193],> 7.00
11,CC(C)C[C@@H](C(=O)N1C[C@]2(C[C@H]1C#N)C(=O)Nc1ccccc12)N(C)C(=O)c1ccncc1 [Example 194],> 7.00
12,CC(C)C[C@@H](C(=O)N1C[C@]2(C[C@H]1C#N)C(=O)Nc1ccccc12)N(C)C(=O)c1cncc(C(F)(F)F)c1 [Example 195],> 7.00
13,CC(C)C[C@@H](C(=O)N1C[C@]2(C[C@H]1C#N)C(=O)Nc1ccccc12)N(C)C(=O)c1cncc(F)c1 [Example 196],> 7.00
14,CC(C)C[C@@H](C(=O)N1C[C@]2(C[C@H]1C#N)C(=O)Nc1ccccc12)N(C)C(=O)c1cc(F)ccn1 [Example 197],> 7.00
15,CC(C)C[C@@H](C(=O)N1C[C@]2(C[C@H]1C#N)C(=O)Nc1ccccc12)N(C)C(=O)c1ccc(F)cn1 [Example 198],> 7.00
16,CC(C)C[C@@H](C(=O)N1C[C@]2(C[C@H]1C#N)C(=O)Nc1ccccc12)N(C)C(=O)c1cccc(N)n1 [Example 199],> 7.00
17,CC(C)C[C@@H](C(=O)N1C[C@]2(C[C@H]1C#N)C(=O)Nc1ccccc12)N(C)C(=O)c1cnccn1 [Example 200],> 7.00
18,CC(C)C[C@@H](C(=O)N1C[C@]2(C[C@H]1C#N)C(=O)Nc1ccccc12)N(C)C(=O)c1cn(C)cn1 [Example 201],> 7.00
19,CC(C)C[C@@H](C(=O)N1C[C@]2(C[C@H]1C#N)C(=O)Nc1ccccc12)N(C)C(=O)c1ccn[nH]1 [Example 202],> 7.00
20,CC(C)C[C@@H](C(=O)N1C[C@]2(C[C@H]1C#N)C(=O)Nc1ccccc12)N(C)C(=O)c1ccnn1C [Example 203],> 7.00
21,CC(C)C[C@@H](C(=O)N1C[C@]2(C[C@H]1C#N)C(=O)Nc1ccccc12)N(C)C(=O)c1ccn(C)n1 [Example 204],> 7.00

row,Structure (SMILES),pEC50
1,CC(C)C[C@@H](C(=O)N1C[C@]2(C[C@H]1C#N)C(=O)Nc1ccccc12)N(C)C(=O)c1nc2ccccc2[nH]1 [Example 205],> 7.00
2,CC(C)C[C@@H](C(=O)N1C[C@]2(C[C@H]1C#N)C(=O)Nc1ccccc12)N(C)C(=O)c1nc2ccccc2s1 [Example 206],> 7.00
3,CC(C)C[C@@H](C(=O)N1C[C@]2(C[C@H]1C#N)C(=O)Nc1ccccc12)N(C)C(=O)c1cc2ccccc2s1 [Example 207],> 7.00
4,CC(C)C[C@@H](C(=O)N1C[C@]2(C[C@H]1C#N)C(=O)Nc1ccccc12)N(C)C(=O)c1cc2ccccc2o1 [Example 208],> 7.00
5,CC(C)C[C@@H](C(=O)N1C[C@]2(C[C@H]1C#N)C(=O)Nc1ccccc12)N(C)C(=O)c1cc2sccc2[nH]1 [Example 209],> 7.00
6,CC(C)C[C@@H](C(=O)N1C[C@]2(C[C@H]1C#N)C(=O)Nc1ccccc12)N(C)C(=O)c1ccc2ncccc2c1 [Example 210],> 7.00
7,CC(C)C[C@@H](C(=O)N1C[C@]2(C[C@H]1C#N)C(=O)Nc1ccccc12)N(C)C(=O)c1ccc2ccccc2n1 [Example 211],> 7.00
8,CC(C)C[C@@H](C(=O)N1C[C@]2(C[C@H]1C#N)C(=O)Nc1ccccc12)N(C)C(=O)c1cc2ccccc2cn1 [Example 212],> 7.00
9,CC(C)C[C@@H](C(=O)N1C[C@]2(C[C@H]1C#N)C(=O)Nc1ccccc12)N(C)C(=O)c1cnc2ccccc2c1 [Example 213],> 7.00
10,CC(C)C[C@@H](C(=O)N1C[C@]2(C[C@H]1C#N)C(=O)Nc1ccccc12)N(C)C(=O)c1cccc2ncccc12 [Example 214],> 7.00
11,CC(C)C[C@@H](C(=O)N1C[C@]2(C[C@H]1C#N)C(=O)Nc1ccccc12)N(C)C(=O)c1cccc2cnccc12 [Example 215],> 7.00
12,CC(C)C[C@@H](C(=O)N1C[C@]2(C[C@H]1C#N)C(=O)Nc1ccccc12)N(C)C(=O)c1ccc2cnccc2c1 [Example 216],> 7.00
13,CC(C)C[C@@H](C(=O)N1C[C@]2(C[C@H]1C#N)C(=O)Nc1ccccc12)N(C)C(=O)c1ccc2ccncc2c1 [Example 217],> 7.00
14,CC(C)C[C@@H](C(=O)N1C[C@]2(C[C@H]1C#N)C(=O)Nc1ccccc12)N(C)C(=O)c1ccc2cccnc2c1 [Example 218],> 7.00
15,CC(C)C[C@@H](C(=O)N1C[C@]2(C[C@H]1C#N)C(=O)Nc1ccccc12)N(C)C(=O)c1ccc2ccccc2c1 [Example 219],> 7.00
16,CC(C)C[C@@H](C(=O)N1C[C@]2(C[C@H]1C#N)C(=O)Nc1ccccc12)N(C)C(=O)c1cccc2ccccc12 [Example 220],> 7.00
17,CC(C)C[C@@H](C(=O)N1C[C@]2(C[C@H]1C#N)C(=O)Nc1ccccc12)N(C)C(=O)c1ccc(F)c2ccccc12 [Example 221],> 7.00
18,CC(C)C[C@@H](C(=O)N1C[C@]2(C[C@H]1C#N)C(=O)Nc1ccccc12)N(C)C(=O)c1ccc2cc(F)ccc2c1 [Example 222],> 7.00
19,CC(C)C[C@@H](C(=O)N1C[C@]2(C[C@H]1C#N)C(=O)Nc1ccccc12)N(C)C(=O)c1ccc2cn[nH]c2c1 [Example 223],> 7.00
20,CC(C)C[C@@H](C(=O)N1C[C@]2(C[C@H]1C#N)C(=O)Nc1ccccc12)N(C)C(=O)c1ccc2cnn(C)c2c1 [Example 224],> 7.00
21,CC(C)C[C@@H](C(=O)N1C[C@]2(C[C@H]1C#N)C(=O)Nc1ccccc12)N(C)C(=O)c1ccc2nc(N)sc2c1 [Example 225],6.00 to 7.00

row,Structure (SMILES),pEC50
1,CC(C)C[C@@H](C(=O)N1C[C@]2(C[C@H]1C#N)C(=O)Nc1ccccc12)N(C)C(=O)Cc1ccccc1 [Example 226],> 7.00
2,CC(C)C[C@@H](C(=O)N1C[C@]2(C[C@H]1C#N)C(=O)Nc1ccccc12)N(C)C(=O)CCc1ccccc1 [Example 227],> 7.00
3,CC(C)C[C@@H](C(=O)N1C[C@]2(C[C@H]1C#N)C(=O)Nc1ccccc12)N(C)C(=O)/C=C/c1ccccc1 [Example 228],> 7.00
4,CC(C)C[C@@H](C(=O)N1C[C@]2(C[C@H]1C#N)C(=O)Nc1ccccc12)N(C)C(=O)COc1ccccc1 [Example 229],> 7.00
5,CC(C)C[C@@H](C(=O)N1C[C@]2(C[C@H]1C#N)C(=O)Nc1ccccc12)N(C)C(=O)c1ccc2c(Br)cccc2n1 [Example 231],> 7.00
6,CC(C)C[C@@H](C(=O)N1C[C@]2(C[C@H]1C#N)C(=O)Nc1ccccc12)N(C)C(=O)c1ccc(-c2ccccc2)cc1 [Example 232],> 7.00
7,Cc1ccc2cc(C(=O)N(C)[C@@H](CC(C)C)C(=O)N3C[C@]4(C[C@H]3C#N)C(=O)Nc3ccccc34)ccc2n1 [Example 234],> 7.00
8,CC(C)C[C@@H](C(=O)N1C[C@]2(C[C@H]1C#N)C(=O)Nc1ccccc12)N(C)C(=O)c1ccc2ncc(F)cc2c1 [Example 235],> 7.00
9,CC(C)C[C@@H](C(=O)N1C[C@]2(C[C@H]1C#N)C(=O)Nc1ccccc12)N(C)C(=O)c1cc2ccc(Br)cc2cn1 [Example 236],> 7.00
10,CC(C)C[C@@H](C(=O)N1C[C@]2(C[C@H]1C#N)C(=O)Nc1ccccc12)N(C)C(=O)c1ccc2ncc(C(F)(F)F)cc2c1 [Example 237],> 7.00
11,Cc1cc2cc(C(=O)N(C)[C@@H](CC(C)C)C(=O)N3C[C@]4(C[C@H]3C#N)C(=O)Nc3ccccc34)cc(OC(F)(F)F)c2nc1C [Example 238],> 7.00
12,CC(C)C[C@@H](C(=O)N1C[C@]2(C[C@H]1C#N)C(=O)Nc1ccccc12)N(C)C(=O)c1cc(Cl)c2ncc(C3CC3)cc2c1 [Example 239],> 7.00
13,CC(C)C[C@@H](C(=O)N1C[C@]2(C[C@H]1C#N)C(=O)Nc1ccccc12)N(C)C(=O)c1cc(Cl)c2ncc(C(F)(F)F)cc2c1 [Example 240],> 7.00
14,CC(C)C[C@@H](C(=O)N1C[C@]2(C[C@H]1C#N)C(=O)Nc1ccccc12)N(C)C(=O)c1ccc2ccsc2c1 [Example 246],> 7.00
15,CC(C)C[C@@H](C(=O)N1C[C@]2(C[C@H]1C#N)C(=O)Nc1ccccc12)N(C)C(=O)c1cc2ccccn2n1 [Example 247],> 7.00
16,CC(C)C[C@@H](C(=O)N1C[C@]2(C[C@H]1C#N)C(=O)Nc1ccccc12)N(C)C(=O)C#Cc1ccccc1 [Example 248],> 7.00
17,COc1ccc2[nH]c(C(=O)N(C)[C@@H](CC(C)C)C(=O)N3C[C@]4(C[C@H]3C#N)C(=O)Nc3ccccc34)nc2c1 [Example 249],> 7.00
18,CC(C)C[C@@H](C(=O)N1C[C@]2(C[C@H]1C#N)C(=O)Nc1ccccc12)N(C)C(=O)c1nc2cc(F)ccc2[nH]1 [Example 250],> 7.00
19,CC(C)C[C@@H](C(=O)N1C[C@]2(C[C@H]1C#N)C(=O)Nc1ccccc12)N(C)C(=O)c1nc2cc(Cl)c(Cl)cc2[nH]1 [Example 251],> 7.00
20,Cc1cccc2[nH]c(C(=O)N(C)[C@@H](CC(C)C)C(=O)N3C[C@]4(C[C@H]3C#N)C(=O)Nc3ccccc34)nc12 [Example 252],> 7.00
